According to ChEMBL document CHEMBL1125556, “Fluoroquinolones: relationships between structural variations, mammalian cell cytotoxicity, and antimicrobial activity” (J Med Chem, 1992):
≈ marks a conversion by molar mass, not a printed value.

Assays:
V79 = experiment: Mammalian cell cytotoxicity test in chinese hamster V79 cells (clonogenic cytotoxicity); assay type: functional, cell-based; details: Cricetulus griseus, V79; read-out: IC50
[1] = Antibacterial activity against five Gram-negative bacteria; assay type: functional; details: read-out: MIC

Compound	MIC [1] [µg/mL]	IC50 (V79) [µg/mL]
NC1CCCN(c2nc3c(cc2F)c(=O)c(C(=O)O)cn3C2CC2)C1 (centres undefined)	0.4 (≈ 1.15 µM)	100 (≈ 289 µM)
O=C(O)c1cn(C2CC2)c2nc(N3CCCC3)c(F)cc2c1=O	0.26 (≈ 0.819 µM)	58 (≈ 183 µM)
CSc1c(F)c(N2CCC(N)C2)cc2c1c(=O)c(C(=O)O)cn2C1CC1 (centres undefined)	> 1.58	92 (≈ 244 µM)
COc1c(N2CCCC2)c(F)cc2c(=O)c(C(=O)O)cn(C3CC3)c12	0.3 (≈ 0.866 µM)	150 (≈ 433 µM)
NC1CCN(c2c(F)cc3c(=O)c(C(=O)O)cn(-c4ccc(F)cc4F)c3c2Cl)C1 (centres undefined)	0.23 (≈ 0.525 µM)	89 (≈ 203 µM)
CNCC1(C)CCN(c2c(F)cc3c(=O)c(C(=O)O)cn(C4CC4)c3c2Cl)C1 (centres undefined)	0.26 (≈ 0.637 µM)	23 (≈ 56.4 µM)
CC1(n2cc(C(=O)O)c(=O)c3cc(F)c(N4CCC(N)C4)c(F)c32)CC1 (centres undefined)	0.3 (≈ 0.826 µM)	160 (≈ 440 µM)
CNCC1(C)CCN(c2cc3c(cc2F)c(=O)c(C(=O)O)cn3C2CC2)C1 (centres undefined)	0.4 (≈ 1.07 µM)	205 (≈ 549 µM)
CC1CN(c2c(F)cc3c(=O)c(C(=O)O)cn(-c4ccc(F)cc4F)c3c2C(F)(F)F)CCN1 (centres undefined)	4.14 (≈ 8.53 µM)	> 500
C=Cn1cc(C(=O)O)c(=O)c2cc(F)c(N3CCC(N)C3)c(F)c21 (centres undefined)	0.13 (≈ 0.388 µM)	310 (≈ 925 µM)
CCNCC1CCN(c2cc3c(c(N)c2F)c(=O)c(C(=O)O)cn3C2CC2)C1 (centres undefined)	0.35 (≈ 0.901 µM)	61 (≈ 157 µM)
O=C(O)c1cn(-c2ccc(F)cc2F)c2cc(N3CCNCC3)c(F)cc2c1=O	0.11 (≈ 0.273 µM)	> 500
CC1CN(c2c(F)cc3c(=O)c(C(=O)O)cn(C4CC4)c3c2F)CC(C)N1 (centres undefined)	0.05 (≈ 0.132 µM)	150 (≈ 397 µM)
CCc1c(F)c(N2CCC(N)C2)cc2c1c(=O)c(C(=O)O)cn2C1CC1 (centres undefined)	1.81 (≈ 5.04 µM)	46 (≈ 128 µM)
NC1CCN(c2cc3c(c(O)c2F)c(=O)c(C(=O)O)cn3C2CC2)C1 (centres undefined)	0.04 (≈ 0.115 µM)	72 (≈ 207 µM)
CCNCC1CCN(c2cc3c(cc2F)c(=O)c(C(=O)O)cn3CC)C1 (centres undefined)	0.56 (≈ 1.55 µM)	310 (≈ 858 µM)
Cc1c(F)c(N2CCC(N)C2)cc2c1c(=O)c(C(=O)O)cn2C1CC1 (centres undefined)	0.09 (≈ 0.261 µM)	14 (≈ 40.5 µM)

Continued, in another order:

MIC [1] [µg/mL]	Compound	IC50 (V79) [µg/mL]
1 (≈ 2.34 µM)	CC1(CN)CCN(c2c(F)cc3c(=O)c(C(=O)O)cn(C4CC4)c3c2C(F)(F)F)C1 (centres undefined)	110 (≈ 257 µM)
0.13 (≈ 0.358 µM)	NC1CCCN(c2c(F)cc3c(=O)c(C(=O)O)cn(C4CC4)c3c2F)C1 (centres undefined)	53 (≈ 146 µM)
0.07 (≈ 0.184 µM)	NC1CCCN(c2c(F)cc3c(=O)c(C(=O)O)cn(C4CC4)c3c2Cl)C1 (centres undefined)	24 (≈ 63.2 µM)
0.53 (≈ 1.53 µM)	Nc1c(N2CCC(N)C2)c(F)cc2c(=O)c(C(=O)O)cn(C3CC3)c12 (centres undefined)	260 (≈ 751 µM)
0.06 (≈ 0.158 µM)	NCC1CCN(c2c(F)cc3c(=O)c(C(=O)O)cn(C4CC4)c3c2Cl)C1 (centres undefined)	8 (≈ 21.1 µM)
0.91 (≈ 2.13 µM)	CC1CN(c2c(F)cc3c(=O)c(C(=O)O)cn(C4CC4)c3c2C(F)(F)F)CC(C)N1 (centres undefined)	> 500
0.46 (≈ 1.22 µM)	NC1CCN(c2c(F)cc3c(=O)c(C(=O)O)cn(C4CC4)c3c2[N+](=O)[O-])C1 (centres undefined)	69 (≈ 183 µM)
1.05 (≈ 2.51 µM)	CCNCC1CCN(c2c(F)cc3c(=O)c(C(=O)O)cn(C4CC4)c3c2[N+](=O)[O-])C1 (centres undefined)	67 (≈ 160 µM)
12.5 (≈ 32.5 µM)	O=C(O)c1cn(C2CC2)c2c(C(F)(F)F)c(N3CCCC3)c(F)cc2c1=O	280 (≈ 729 µM)
0.52 (≈ 1.26 µM)	NCC1CCN(c2c(F)cc3c(=O)c(C(=O)O)cn(C4CC4)c3c2C(F)(F)F)C1 (centres undefined)	38 (≈ 91.9 µM)
1 (≈ 2.42 µM)	CC1(N)CCN(c2c(F)cc3c(=O)c(C(=O)O)cn(C4CC4)c3c2C(F)(F)F)C1 (centres undefined)	110 (≈ 266 µM)
0.23 (≈ 0.664 µM)	NC1CCN(c2nc3c(cc2F)c(=O)c(C(=O)O)cn3C2CC2)CC1	100 (≈ 289 µM)
0.1 (≈ 0.299 µM)	O=C(O)c1cn(C2CC2)c2c(F)c(N3CCCC3)c(F)cc2c1=O	120 (≈ 359 µM)
0.2 (≈ 0.53 µM)	CSc1c(N2CCC(N)C2)c(F)cc2c(=O)c(C(=O)O)cn(C3CC3)c12 (centres undefined)	31 (≈ 82.1 µM)
0.21 (≈ 0.561 µM)	CCNCC1CCN(c2nc3c(cc2F)c(=O)c(C(=O)O)cn3C2CC2)C1 (centres undefined)	160 (≈ 427 µM)
0.2 (≈ 0.579 µM)	NCC1CCN(c2cc3c(cc2F)c(=O)c(C(=O)O)cn3C2CC2)C1 (centres undefined)	81 (≈ 235 µM)
0.14 (≈ 0.404 µM)	NCC1CCN(c2nc3c(cc2F)c(=O)c(C(=O)O)cn3C2CC2)C1 (centres undefined)	51 (≈ 147 µM)
0.08 (≈ 0.211 µM)	CC1CN(c2c(F)cc3c(=O)c(C(=O)O)cn(C4CC4)c3c2Cl)CCN1 (centres undefined)	45 (≈ 118 µM)
0.6 (≈ 1.36 µM)	CCNCC1CCN(c2c(F)cc3c(=O)c(C(=O)O)cn(C4CC4)c3c2C(F)(F)F)C1 (centres undefined)	120 (≈ 272 µM)
0.12 (≈ 0.356 µM)	CCn1cc(C(=O)O)c(=O)c2cc(F)c(N3CCC(N)C3)c(F)c21 (centres undefined)	300 (≈ 889 µM)
